Data reported in PubChem BioAssay (NCI).
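How tested: cells in 96-well plates exposed to compound for 48 hours at five concentrations. TGI: total growth inhibition.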

Experiments:
Experiment in all cases: inhibition of tumour cell growth, NCI panel, 48 h
[1] = system: HT29 colon
[2] = system: BT-549 breast
[3] = system: UACC-257 melanoma
[4] = system: OVCAR-3 ovarian
[5] = system: K-562 leukemia
[6] = system: SNB-19 CNS
[7] = system: SR leukemia
[8] = system: SK-MEL-5 melanoma
[9] = system: UACC-62 melanoma
[10] = system: SF-539 CNS
[11] = system: SF-268 CNS
[12] = system: RXF 393 renal
[13] = system: DU-145 prostate
[14] = system: NCI-H226 lung
[15] = system: HL-60(TB) leukemia
[16] = system: SK-OV-3 ovarian
[17] = system: MCF7 breast
[18] = system: HCT-15 colon
[19] = system: IGROV1 ovarian
[20] = system: UO-31 renal
[21] = system: A549 NSCLC
[22] = system: MALME-3M melanoma
[23] = system: OVCAR-5 ovarian
[24] = system: OVCAR-4 ovarian
[25] = system: HOP-92 NSCLC
[26] = system: PC-3 prostate
[27] = system: NCI/ADR-RES ovarian
[28] = system: NCI-H23 lung
[29] = system: TK-10 renal
[30] = system: SF-295 CNS
[31] = system: MDA-N
[32] = system: ACHN renal
[33] = system: EKVX NSCLC
[34] = system: CCRF-CEM leukemia
[35] = system: HCT-116 colon
[36] = system: U251 CNS
[37] = system: NCI-H460 lung
[38] = system: MOLT-4 leukemia
[39] = system: HOP-62 NSCLC
[40] = system: 786-0 renal
[41] = system: SN12C renal
[42] = system: CAKI-1 renal
[43] = system: NCI-H522 lung
[44] = system: M14 melanoma
[45] = system: HCC-2998 colon
[46] = system: SK-MEL-28 melanoma
[47] = system: SNB-75 CNS
[48] = system: COLO 205 colon
[49] = system: OVCAR-8 ovarian
[50] = system: SW-620 colon
[51] = system: MDA-MB-435
[52] = system: T-47D breast
[53] = system: LOX IMVI melanoma
[54] = system: SK-MEL-2 melanoma
[55] = system: KM12 colon
[56] = system: HS 578T breast
[57] = system: A498 renal
[58] = system: MDA-MB-231 breast
[59] = system: RPMI-8226 leukemia

Measured: TGI

CN(CCO)CCCC1COc2ccccc2O1 (stereo not given)
45.4 µM: [11]
not listed: [51] | [52] | [53] | [54] | [55] | [56] | [57] | [58] | [59]
> 100 µM: all other assays above

O=C1Nc2ccccc2Cn2c1cc1oc(-c3ccccc3)cc12
66.5 µM: [6]
53 µM: [12]
72.3 µM: [11]
73.7 µM: [25]
63.3 µM: [30]
87.2 µM: [58]
44.8 µM: [39]
44.3 µM: [56]
64.2 µM: [47]
69.9 µM: [16]
45.4 µM: [40]
74.3 µM: [10]
36.3 µM: [36]
92.6 µM: [52]
not listed: [2] | [14] | [20] | [35] | [44] | [59]
> 100 µM: all other assays above

CNC(=S)N/N=C(\C(=N/NC(=S)NC)c1ccccn1)c1ccccn1
41.1 µM: [12]
98 µM: [22]
> 53.5 µM: [39]
72.8 µM: [43]
> 92.6 µM: [47]
> 44.6 µM: [32]
> 63.6 µM: [11]
99.1 µM: [56]
> 75.1 µM: [14]
> 69.6 µM: [20]
> 83.2 µM: [30]
> 84.8 µM: [40]
> 68.5 µM: [28]
24.5 µM: [44]
> 67.6 µM: [8]
not listed: [4] | [7] | [15] | [27] | [34] | [38] | [52]
> 100 µM: all other assays above

O=c1[nH]c(=O)n(C2CC(O)C(CO)O2)cc1NN=NCCCc1ccccc1 (stereo not given)
not listed: [2] | [5] | [6] | [20] | [36] | [43] | [47] | [50] | [59]
> 100 µM: all other assays above
